From patent US12090225B2 (Avalyn Pharma Inc., priority 2018, dated 2024)

Tests used:
[1] = Formulation screening: compatibility of nintedanib esylate with pirfenidone and osmolality adjusting agents (visual appearance); type: physicochemical
Protocol: Formulation screening of stand alone nintedanib esylate and in combination with pirfenidone were conducted. Commonly used ionic osmolality adjusting agents include sodium chloride, sodium citrate, magnesium chloride were evaluated as excipients. In addition, mannitol and propylene glycol, which are […] osmolality adjusting agents, were also tested.
The resulting solutions, if not immediately precipitated, were filled into clear Type I glass vials and sealed with a Teflon lined rubber stopper and aluminum crimp cap. The test solutions were stored at ambient room condition in the dark. Visual appearance was periodically assessed within 24 hours and periodically thereafter. Table 31 summarizes the initial formulation screening results.

[2] = Tier 1: nintedanib esylate-excipient compatibility study; type: physicochemical
Protocol: Test solution 101-01-16-00 was filtered through a 0.22 micron PVDF filter, all other formulations were not filtered. The test solutions were filled into 10 mL clear Type I glass vials and sealed with Teflon-lined rubber stopper and aluminum crimp cap.

[3] = Tier 3: compatibility in 30 mM NaCl with a second excipient; type: physicochemical
Protocol: Compatibility of nintedanib esylate and nintedanib esylate plus pirfenidone control with sodium chloride and a second excipient was assessed. […] The test solutions were filled into 10 mL clear Type I glass vials with Teflon lined rubber stopper and aluminum crimp caps and stored at ambient room condition away from light.

[4] = Compatibility of nintedanib esylate with container system and membrane filter (nylon filter, LDPE vials); type: physicochemical
Text: Compatibility of Nintedanib Esylate with Container System and Type of Membrane Filter: The objective of this study is to determine the suitability of low density polyethylene (LDPE) vials and nylon filters for use with nintedanib esylate standalone and nintedanib esylate plus pirfenidone combination formulations. The test samples were stored at ambient room condition and periodically check for precipitation or crystallization.

[5] = Plasma and lung pharmacokinetics of nintedanib esylate, oral vs intratracheal aerosol; type: in vivo, C57BL/6 mice; settings: for adverse effect (dyspnea): mice; for Cmax / half-life / AUC(0-t): female, C57BL/6, mouse; for half-life: read-out: Elimination half-life (alpha-phase)
[6] = Inhaled pharmacokinetics of fixed combination nintedanib esylate and pirfenidone; type: in vivo, C57BL/6 mice; settings: 10.0 mg/kg each IT; for half-life: read-out: Elimination half-life (alpha-phase)
Protocol: Plasma and lung tissue samples were taken 2, 5, 10, 20, 40 min and 1, 2, and 4 hours post dose. Nintedanib was extracted and quantitated as μg/mL plasma and μg/gram lung tissue.

[7] = Inhaled pharmacokinetics of nintedanib salt forms (intratracheal); type: in vivo, C57BL/6 mice; settings: for half-life: C57BL/6, mouse, 1 mg/kg, read-out: Elimination half-life (alpha-phase); for Cmax: read-out: Cmax
[8] = Therapeutic bleomycin model: dose levels and lung pharmacokinetic comparison; type: in vivo, Sprague Dawley rats; settings: Oral Gavage (PO) 60.0 mg/kg; rat
[9] = system: bleomycin pulmonary fibrosis; assay: Therapeutic bleomycin pulmonary fibrosis model: Ashcroft fibrosis score, hydroxyproline; type: in vivo, Sprague Dawley rats; settings: Oral Gavage (PO) 60 mg/kg BID; bleomycin rats
Protocol: Briefly, acclimated Sprague Dawley male rats (c.a. 253 grams at first dosing) were administered bleomycin on days 1, 2, 3 and 6 by the oropharyngeal (OP) route. On the eighth day, treatment was initiated with either saline or nintedanib. […] Ten animals were enrolled into each dosing group. […] All animals were euthanized on day 28d. Body weights were collected throughout the study, with lung weights at termination (Table 55). Left lungs were extracted and measured for hydroxyproline content, while […] were subjected to histology for Ashcroft fibrosis score determination (Table 56).

[10] = Therapeutic bleomycin model: body weight gain, lung weight-to-body weight ratio, tolerability; settings: Oral Gavage (PO), dose group printed 0 mg/kg, BID; bleomycin rats
[11] = 100.0 mg/kg PO, Lung (whole lung homogenate)
[12] = inhaled or intranasal, 2.5 mg/kg IT, Lung (whole lung homogenate)
[13] = inhaled or intranasal, 2.5 mg/kg IT, Plasma
[14] = inhaled or intranasal, 10.0 mg/kg IT, Lung (whole lung homogenate)
[15] = inhaled or intranasal, 10.0 mg/kg IT, Plasma
[16] = female, C57BL/6, mouse, inhaled or intranasal, Lung (whole lung homogenate)
[17] = female, C57BL/6, mouse, inhaled or intranasal, Plasma
[18] = 1 mg/kg (base equivalent) IT, mice

In the case of `COC(=O)c1ccc2c(c1)NC(=O)/C2=C(\Nc1ccc(N(C)C(=O)CN2CCN(C)CC2)cc1)c1ccccc1` [Nintedanib esylate], the “compatibility with sodium citrate” value ([1]; aqueous solution) is reported as “incompatible”, the “compatibility with sodium chloride” value ([1]; sodium chloride at 30 mM) is reported as “may be compatible” and the “compatibility with sodium chloride” value ([1]; sodium chloride at 60 mM or higher) is reported as “incompatible”. For the same compound, the “compatibility with clear borosilicate glass vial” value [2] was “not compatible”, the “compatibility with PVDF membrane filter” value ([2]; 0.22 μm) was “not compatible” and the “stability by itself in 30 mM NaCl” value [3] was “not stable”. The “compatibility with NaCl” value ([4]; NaCl at 30 mM, in absence of pirfenidone, irrespective of container type and filtration material) was “incompatible”, the “suitability of clear borosilicate glass vial” value ([4]; even at 0.5 mg/mL nintedanib esylate) was “not suitable” and the “suitability of LDPE vial” value ([4]; nintedanib esylate and nintedanib esylate in 1.5% propylene glycol solutions) was “suitable”. For the same compound, the “adverse effect (dyspnea)” value ([5]; 2.5 mg/kg IT) was “not observed”, the “AUC 0-last” value ([5]; 2.5 mg/kg IT, Lung (whole lung homogenate)) was 67.8 mg·h/kg and the “adverse effect (dyspnea)” value ([5]; 10 mg/kg IT) was “caused dyspnea”. For the same compound, the “AUC 0-last” value ([5]; 10.0 mg/kg IT, Lung (whole lung homogenate)) was 167.8 mg·h/kg, the “AUC 0-last” value [5, 11] was 24.1 mg·h/kg and the Cmax [5, 12] was 57500 ng/g. The half-life [5, 12] was 3.8 min, the AUC(0-t) [5, 13] was 200 ng·h/mL and the Cmax [5, 13] was 700 ng/mL. It also gave a half-life [5, 13] of 2.3 min, a Cmax [5, 14] of 250000 ng/g and a half-life [5, 14] of 5.6 min. It also gave an AUC(0-t) [5, 15] of 600 ng·h/mL, a Cmax [5, 15] of 2700 ng/mL and a half-life [5, 15] of 2.3 min. For the same compound, the Cmax [5, 11] was 12100 ng/g, the AUC(0-t) ([5]; 100.0 mg/kg PO, Plasma) was 1800 ng·h/mL and the Cmax ([5]; 100.0 mg/kg PO, Plasma) was 600 ng/mL. For the same compound, the half-life ([5]; 100.0 mg/kg PO, Plasma) was 112 min, the “AUC 0-last” value ([6]; Lung (whole lung homogenate)) was 68.4 mg·h/kg and the Cmax [6, 16] was 171000 ng/g. The half-life [6, 16] was 1.8 min, the AUC(0-t) [6, 17] was 1000 ng·h/mL and the Cmax [6, 17] was 2800 ng/mL. For the same compound, the half-life [6, 17] was 7.7 min, the “Lung AUC” value [7, 18] was “about 20 mg·hr/kg” and the lung half-life [7, 18] was “about 3 minutes”. For the same compound, the half-life ([7]; female, lung (whole lung homogenate), inhaled or intranasal, lung (whole lung homogenate), 1.0 mg/kg IT, C57BL/6 mice) was 2.9 min, the half-life ([7]; female, plasma, inhaled or intranasal, plasma, 1.0 mg/kg IT, C57BL/6 mice) was 2 min and the Cmax ([7]; female, mouse, inhaled or intranasal, lung (whole lung homogenate), 1.0 mg/kg IT, C57BL/6 mice) was 34500 ng/g. For the same compound, the Cmax ([7]; female, mouse, inhaled or intranasal, plasma, 1.0 mg/kg IT (base equivalent), C57BL/6 mice) was 400 ng/mL, the AUC(0-t) ([7]; female, mouse, inhaled or intranasal, plasma, 1.0 mg/kg IT, C57BL/6 mice) was 200 ng·h/mL and the “AUC 0-last” value ([7]; lung (whole lung homogenate), 1.0 mg/kg IT, C57BL/6 mice) was 21.7 mg·h/kg. The “Lung AUC” value [8] was 29.3 mg·h/kg, the “Lung Cmax” value [8] was 4.4 µg/g and the “Fibrosis Score (SD) (Ashcroft)” value [9] was 2.3 (0.45). The “Fibrosis Score, Delta to Vehicle (%)” value [9] was 11.5% and the “Body Weight Gain, Delta to Sham (%)” value [10] was −46.9%.
